# Measurements reported in patent US11123398B2, “Chemotherapeutic combinations of cationic antimicrobial peptides and chemotherapeutics” (LYTIX BIOPHARMA AS, priority 2014, dated 2021).
# Non-standard residues stand in square brackets, D forms with d. Residues, ends and D or L forms follow the SMILES beside them. Dip = N[C@H](C(=O)O)C(c1ccccc1)c1ccccc1
# What was measured:
# [1] = test system: panel of 37 human cancer cell lines; format: cell-based
# Description: The adherent cell lines were washed once with 200 μl FBS-free culture medium before treatment. […] compounds in ¼ dilution step with a top dose of 400 μM (range 4×10^−4 to 4×10^−10 M), with 1% (final concentration) Triton X-100 as positive control and FBS-free culture medium as negative control. The cells (190 μl) were incubated in a 200 μl final volume of FBS-free culture medium containing test substances at 37° C. under 5% CO2.
# Three independent experiments were performed, each concentration being tested in quadruplicate. Control cells were treated with vehicle alone. At the end of treatments, the cytotoxic activity was evaluated by a MTS assay (see § 3.3.).
# (§1) Like MTT, MTS is bioreduced by cells into a formazan product that is directly soluble in culture medium without processing, unlike MTT.
# (§2) At the end of the cells treatment, 40 μl of a 0.22 μm filtered freshly combined solution of MTS (20 ml at 2 mg/ml, Ref G1111, Batch 235897, Exp March 2009, Promega, Charbonnières, France) and PMS (1 ml at 0.92 mg/ml, Ref P9625, Batch 065K0961, Sigma) in Dulbecco's Phosphate Buffered Saline (DPBS, Ref 17-513Q, Batch 6MB0152, Cambrex), were added in each well. Culture plates were incubated for 2 h at 37° C. Absorbency (OD) were measured at 490 nm in each well using VICTOR^3™ 1420 multilabeled counter (Wallac, PerkinElmer, Courtaboeuf, France).
# IC50: drug concentration to obtain a 50% inhibition of cell proliferation.
# The dose-response curves were plotted using XLFit 3 (IDBS, United Kingdom). The IC50 determination values were calculated using the XLFit 3 software from semi-log curves. Individual IC50 determination values as well as mean and SD values were generated.
# Raji cell line = format: cell-based, human; conditions: 4 h
# Description: (§3) Tumor cells were plated in 96-well flat-bottom microtitration plates (Nunc, Dutscher, Brumath, France) and incubated at 37° C. for 24 hours before treatment in 190 μl of drug-free and FBS-free culture medium.
# (§4) Tumor cells were incubated for 4 hours with 10 concentrations of compounds in ¼ dilution step with a top dose of 400 μM (range 4×10^−4 to […]), with 1% (final concentration) Triton X-100 as positive control and FBS-free culture medium as negative control. The cells (190 μl) were incubated in a 200 μl final volume of FBS-free culture medium containing test substances at 37° C. under 5% CO2.
# (§5) Three independent experiments were performed, each concentration being issued from quadruplicate. Control cells were treated with vehicle alone. At the end of treatments, the cytotoxic activity was evaluated by a MTS assay (see § 3.3 below).
# as §1, §2
# (§6) 4.1. IC50 Data was Determined as in Example 1
# U-937 cell line = format: cell-based, human; conditions: 4 h
# Description: as §3, §4, §5, §1, §2, §6
# [2] = test system: murine CT26WT colon carcinoma; assay: Murine CT26WT colon carcinoma tumours in mice, treatment regimes; format: in vivo; conditions: for Mean tumour size at day 1: prior to start of treatment
# Description: The administration takes place by intra-tumoural injection of LTX-315 dissolved in sterile saline (0.9% NaCl in sterile water).
# The mice were divided into five groups, 8 mice in each group. When the tumours reached the desired size of 20 mm^2 the treatment by intra tumoural injection was initiated. Group one was treated solely on day 1, Group two on day 1 and 2, Group three on day 1 and 3 and Group four on day 1, 2 and 3. All daily treatments were one single injection of 1.0 mg LTX-315 dissolved in 50 μl (20 mg/ml). Group five was treated with the 50 μl of vehicle for LTX-315 (Group 5).
# Weighing and physical examination were used as health controls.
# A375 cells = assay: Fluorescence measurement of reactive oxygen species (ROS); format: cell-based, human; conditions: 15 minutes of incubation; concentration-dependent
# Description: A DCFDA cellular reactive oxygen species detection assay kit was purchased from Abcam®, and A375 cells seeded in a 96-well Costar black clear bottom plate with 20,000 cells per well incubated in 37° C. 16 hours prior to DCFDA assay. Cells were washed with a 100 μL/well of pre-warmed PBS one time, and incubated with 20 μM of DCFDA in a buffer solution supplied with the kit at 37° C. in a cell culture incubator for 45 min, and then washed again with a buffer solution of 100 μL/well. […] The fluorescence intensity was determined at an excitation wavelength of 485 nm and an emission wavelength of 530 nm on a FLUOstar Galaxy plate reader.
# [3] = Group 1: 1 mg intratumoural on day 1
# [4] = Group 2: 1 mg intratumoural on days 1, 2
# [5] = Group 3: 1 mg intratumoural on days 1, 3
# [6] = Group 4: 1 mg days 1, 2, 3, n=8
# [7] = Group 4: 1 mg intratumoural on days 1, 2, 3
# [8] = of the 32 treated animals, all four regimes
structure (smiles),measurement,setting,value
"NCCCC[C@H](NC(=O)[C@@H](NC(=O)[C@H](Cc1c[nH]c2ccccc12)NC(=O)[C@H](CCCCN)NC(=O)[C@H](CCCCN)NC(=O)[C@H](Cc1c[nH]c2ccccc12)NC(=O)[C@H](Cc1c[nH]c2ccccc12)NC(=O)[C@H](CCCCN)NC(=O)[C@@H](N)CCCCN)C(c1ccccc1)c1ccccc1)C(N)=O [LTX-315, K-K-W-W-K-K-W-Dip-K-NH2] (H-KKWWKKW[Dip]K-NH2)","Potency rank among the five compounds tested, 37 cell line panel",[1],most potent compound from the five compounds tested
same,IC50,[1]; 4 h,3.63 ± 1.45 µM
same,IC50 range against 37 human cancer cell lines,[1]; conclusion,micromolar to ten micromolar range
same,IC50,Raji cell line,4.93 ± 1.03 µM
same,IC50,U-937 cell line,1.15 ± 0.42 µM
same,Animals showing complete tumour response,[2]; Group 1: 1 mg day 1,four out of eight
same,Free of Tumour at end of Follow-Up,"[2]; Group 1: 1 mg day 1, n=8",50% (4/8)
same,Relapse of Tumour,"[2]; Group 1: 1 mg day 1, n=8",20% (1/5)
same,Tumour Response: complete response,"[2]; Group 1: 1 mg day 1, n=8",62.5%
same,Tumour Response: no response,"[2]; Group 1: 1 mg day 1, n=8",0%
same,Tumour Response: partial response,"[2]; Group 1: 1 mg day 1, n=8",27.5%
same,Mean tumour size on day 6,[2]; [3],4.343 ± 2.295 mm^2
same,Mean tumour size on day 10,[2]; [3],7.171 ± 4.035 mm^2
same,Mean tumour size on day 17,[2]; [3],3.712 ± 3.712 mm^2
same,Mean tumour size at day 1,[2]; [3],22.69 ± 0.4070 mm^2
same,Animals showing complete tumour response,"[2]; Group 2: 1 mg days 1, 2",two out of eight
same,Free of Tumour at end of Follow-Up,"[2]; Group 2: 1 mg days 1, 2, n=8",25% (2/8)
same,Relapse of Tumour,"[2]; Group 2: 1 mg days 1, 2, n=8",71% (5/7)
same,Tumour Response: complete response,"[2]; Group 2: 1 mg days 1, 2, n=8",87.5%
same,Tumour Response: no response,"[2]; Group 2: 1 mg days 1, 2, n=8",0%
same,Tumour Response: partial response,"[2]; Group 2: 1 mg days 1, 2, n=8",12.5%
same,Mean tumour size on day 6,[2]; [4],1.458 ± 1.458 mm^2
same,Mean tumour size on day 10,[2]; [4],5.058 ± 4.014 mm^2
same,Mean tumour size on day 17,[2]; [4],6.644 ± 3.430 mm^2
same,Mean tumour size at day 1,[2]; [4],22.90 ± 1.155 mm^2
same,Animals showing complete tumour response,"[2]; Group 3: 1 mg days 1, 3",five out of eight
same,Free of Tumour at end of Follow-Up,"[2]; Group 3: 1 mg days 1, 3, n=8",62.5% (5/8)
same,Relapse of Tumour,"[2]; Group 3: 1 mg days 1, 3, n=8",29% (2/7)
same,Tumour Response: complete response,"[2]; Group 3: 1 mg days 1, 3, n=8",87.5%
same,Tumour Response: no response,"[2]; Group 3: 1 mg days 1, 3, n=8",12.5%
same,Tumour Response: partial response,"[2]; Group 3: 1 mg days 1, 3, n=8",0%
same,Mean tumour size on day 6,[2]; [5],2.983 ± 2.983 mm^2
same,Mean tumour size on day 10,[2]; [5],10.85 ± 7.553 mm^2
same,Mean tumour size on day 17,[2]; [5],0.00 ± 0.00 mm^2
same,Mean tumour size at day 1,[2]; [5],21.43 ± 1.141 mm^2
same,Animals showing complete tumour response,"[2]; Group 4: 1 mg days 1, 2, 3",five out of eight
same,Free of Tumour at end of Follow-Up,[2]; [6],62.5% (5/8)
same,Relapse of Tumour,[2]; [6],37.5%
same,Tumour Response: complete response,[2]; [6],100% (8/8)
same,Tumour Response: no response,[2]; [6],0%
same,Tumour Response: partial response,[2]; [6],0%
same,Mean tumour size on day 6,[2]; [7],0.00 ± 0.00 mm^2
same,Mean tumour size on day 10,[2]; [7],0.00 ± 0.00 mm^2
same,Mean tumour size on day 17,[2]; [7],1.308 ± 1.308 mm^2
same,Mean tumour size at day 1,[2]; [7],24.09 ± 1.653 mm^2
same,Anti-tumour effect,[2]; all four treatment regimes,strong anti tumour effect
same,Toxic or other adverse effects,"[2]; all treated groups, intratumoural 1 mg",No toxic or other adverse effects besides local necrotic tissue and wound formation were observed
same,Animals without response to the treatment,[2]; of the 32 treated animals (in Group 3),one
same,Animals with a complete tumour response,[2]; [8],27
same,Animals with a partial response,[2]; [8],four
same,ROS generation,A375 cells,Significant amounts of ROS were generated
